Assay results as given in ChEMBL document CHEMBL3044572, “Discovery of 2-(4-cyano-3-trifluoromethylphenyl amino)-4-(4-quinazolinyloxy)-6-piperazinyl(piperidinyl)-s-triazines as potential antibacterial agents” (2012).
Values after ≈ are worked out from the molar mass of the structure shown. Active and inactive are the calls of the source. The rule behind the calls is not given here.

Experiments:
[1] = tested on: Mycobacterium tuberculosis; test: Antimicrobial activity against Mycobacterium tuberculosis H37Rv by BACTEC MGIT method; assay type: functional; settings: Mycobacterium tuberculosis, H37Rv
Proteus vulgaris [2] = test: Antimicrobial activity against Proteus vulgaris MTCC 1771 by agar streak dilution method; assay type: functional
Staphylococcus aureus [3] = test: Antimicrobial activity against Staphylococcus aureus MTCC 96 by paper-disk diffusion method; assay type: functional
Candida albicans [4] = test: Antimicrobial activity against Candida albicans MTCC 183 by agar streak dilution method; assay type: functional
Aspergillus fumigatus [5] = test: Antimicrobial activity against Aspergillus fumigatus MTCC 343 at 100 ug/ml by paper-disk diffusion method; assay type: functional, organism-based
Aspergillus niger [6] = test: Antimicrobial activity against Aspergillus niger MTCC 282 by agar streak dilution method; assay type: functional
Salmonella typhi [7] = test: Antimicrobial activity against Salmonella enterica subsp. enterica serovar Typhi MTCC 733 by paper disk diffusion method; assay type: functional
Pseudomonas aeruginosa [8] = test: Antimicrobial activity against Pseudomonas aeruginosa MTCC 741 by paper disk diffusion method; assay type: functional
Bacillus cereus [9] = test: Antimicrobial activity against Bacillus cereus MTCC 619 by agar streak dilution method; assay type: functional
Candida albicans [10] = test: Antimicrobial activity against Candida albicans MTCC 183 by paper-disk diffusion method; assay type: functional
Klebsiella pneumoniae [11] = test: Antimicrobial activity against Klebsiella pneumoniae MTCC 109 by agar streak dilution method; assay type: functional
[12] = tested on: Mycobacterium tuberculosis; test: Antimicrobial activity against Mycobacterium tuberculosis H37Rv at 100 ug/ml by BACTEC MGIT method; assay type: functional, organism-based
Escherichia coli [13] = test: Antimicrobial activity against Escherichia coli MTCC 739 by paper disk diffusion method; assay type: functional
Shigella flexneri [14] = test: Antimicrobial activity against Shigella flexneri MTCC 1457 at 100 ug/ml by paper-disk diffusion method; assay type: functional, organism-based
Staphylococcus aureus [15] = test: Antimicrobial activity against Staphylococcus aureus MTCC 96 by agar streak dilution method; assay type: functional
Bacillus cereus [16] = test: Antimicrobial activity against Bacillus cereus MTCC 619 by paper disk diffusion method; assay type: functional
[17] = tested on: Mycobacterium tuberculosis; test: Antimicrobial activity against Mycobacterium tuberculosis H37Rv by Lowenstein and Jensen method; assay type: functional; settings: for MIC: Mycobacterium tuberculosis, H37Rv
Aspergillus clavatus [18] = test: Antimicrobial activity against Aspergillus clavatus MTCC 1323 at 100 ug/ml by paper disk diffusion method; assay type: functional, organism-based
Salmonella typhi [19] = test: Antimicrobial activity against Salmonella enterica subsp. enterica serovar Typhi MTCC 733 by agar streak dilution method; assay type: functional
Escherichia coli [20] = test: Antimicrobial activity against Escherichia coli MTCC 739 by agar streak dilution method; assay type: functional
Aspergillus niger [21] = test: Antimicrobial activity against Aspergillus niger MTCC 282 by paper-disk diffusion method; assay type: functional
Proteus vulgaris [22] = test: Antimicrobial activity against Proteus vulgaris MTCC 1771 by paper disk diffusion method; assay type: functional
Pseudomonas aeruginosa [23] = test: Antimicrobial activity against Pseudomonas aeruginosa MTCC 741 by agar streak dilution method; assay type: functional
Klebsiella pneumoniae [24] = test: Antimicrobial activity against Klebsiella pneumoniae MTCC 109 by paper disk diffusion method; assay type: functional
Pseudomonas aeruginosa [25] = test: Antimicrobial activity against Pseudomonas aeruginosa MTCC 741 at 100 ug/ml by paper disk diffusion method; assay type: functional, organism-based
Aspergillus clavatus [26] = test: Antimicrobial activity against Aspergillus clavatus MTCC 1323 by agar streak dilution method; assay type: functional
Shigella flexneri [27] = test: Antimicrobial activity against Shigella flexneri MTCC 1457 by agar streak dilution method; assay type: functional
Shigella flexneri [28] = test: Antimicrobial activity against Shigella flexneri MTCC 1457 by paper disk diffusion method; assay type: functional
Aspergillus clavatus [29] = test: Antimicrobial activity against Aspergillus clavatus MTCC 1323 by paper disk diffusion method; assay type: functional
Aspergillus fumigatus [30] = test: Antimicrobial activity against Aspergillus fumigatus MTCC 343 by paper-disk diffusion method; assay type: functional
Aspergillus fumigatus [31] = test: Antimicrobial activity against Aspergillus fumigatus MTCC 343 by agar streak dilution method; assay type: functional

SMILES	MIC [1] [µg/mL]	MIC (Proteus vulgaris [2]) [µg/mL]	inhibition zone (IZ) (Staphylococcus aureus [3]) [mm]	MIC (Candida albicans [4]) [µg/mL]	MIC (Aspergillus niger [6]) [µg/mL]	inhibition zone (IZ) (Salmonella typhi [7]) [mm]	MIC (Bacillus cereus [9]) [µg/mL]	inhibition zone (IZ) (Candida albicans [10]) [mm]	MIC (Klebsiella pneumoniae [11]) [µg/mL]	inhibition [12]	inhibition zone (IZ) (Escherichia coli [13]) [mm]	MIC (Staphylococcus aureus [15]) [µg/mL]	inhibition zone (IZ) (Bacillus cereus [16]) [mm]	inhibition (percent inhibition) [17] [%]	MIC [17] [µg/mL]	MIC (Salmonella typhi [19]) [µg/mL]	MIC (Escherichia coli [20]) [µg/mL]	inhibition zone (IZ) (Aspergillus niger [21]) [mm]	inhibition zone (IZ) (Proteus vulgaris [22]) [mm]	inhibition zone (IZ) (Klebsiella pneumoniae [24]) [mm]	further results
N#Cc1ccc(Nc2nc(Oc3ncnc4ccccc34)nc(N3CCN(c4ncccn4)CC3)n2)cc1C(F)(F)F	> 6.25	100 (≈ 175 µM)	23	100 (≈ 175 µM)	100 (≈ 175 µM)	22	50 (≈ 87.5 µM)	22	100 (≈ 175 µM)	inactive	23	25 (≈ 43.7 µM)	25	96	200 (≈ 350 µM)	50 (≈ 87.5 µM)	100 (≈ 175 µM)	22	21	20	inhibition zone (IZ) (Aspergillus fumigatus [5]): inactive; inhibition zone (IZ) (Pseudomonas aeruginosa [8]): 22 mm; inhibition zone (IZ) (Shigella flexneri [14]): inactive; inhibition zone (IZ) (Aspergillus clavatus [18]): inactive; MIC (Pseudomonas aeruginosa [23]): 50 µg/mL (≈ 87.5 µM)
N#Cc1ccc(Nc2nc(Oc3ncnc4ccccc34)nc(N3CCN(Cc4ccccc4)CC3)n2)cc1C(F)(F)F	> 6.25	100 (≈ 171 µM)	22	100 (≈ 171 µM)	100 (≈ 171 µM)	23	100 (≈ 171 µM)	21	100 (≈ 171 µM)	inactive	21	50 (≈ 85.7 µM)	23	95	500 (≈ 857 µM)	100 (≈ 171 µM)	100 (≈ 171 µM)	21	21	23	inhibition zone (IZ) (Aspergillus fumigatus [5]): inactive; inhibition zone (IZ) (Pseudomonas aeruginosa [25]): inactive; MIC (Aspergillus clavatus [26]): 100 µg/mL (≈ 171 µM); MIC (Shigella flexneri [27]): 100 µg/mL (≈ 171 µM); inhibition zone (IZ) (Shigella flexneri [28]): 20 mm; inhibition zone (IZ) (Aspergillus clavatus [29]): 20 mm
CC(C)N1CCN(c2nc(Nc3ccc(C#N)c(C(F)(F)F)c3)nc(Oc3ncnc4ccccc34)n2)CC1	> 6.25	25 (≈ 46.7 µM)	25	50 (≈ 93.4 µM)	100 (≈ 187 µM)	23	50 (≈ 93.4 µM)	23	50 (≈ 93.4 µM)	inactive	27	25 (≈ 46.7 µM)	23	97	50 (≈ 93.4 µM)	50 (≈ 93.4 µM)	12.5 (≈ 23.3 µM)	22	24	22	MIC (Aspergillus clavatus [26]): 25 µg/mL (≈ 46.7 µM); inhibition zone (IZ) (Pseudomonas aeruginosa [8]): 24 mm; inhibition zone (IZ) (Shigella flexneri [14]): inactive; inhibition zone (IZ) (Aspergillus fumigatus [30]): 23 mm; MIC (Pseudomonas aeruginosa [23]): 12.5 µg/mL (≈ 23.3 µM); inhibition zone (IZ) (Aspergillus clavatus [29]): 23 mm; MIC (Aspergillus fumigatus [31]): 50 µg/mL (≈ 93.4 µM)
